Laboratory results from patent publication US7811551B2, “Imaging agents” (GE Healthcare AS, priority 2003, dated 2010).
Starred links: 1 amine or outer side, 2 acyl side, 3 side chain; linkers in the order of their positions; H or OH if unused. Positions of bridges follow the written chain, without caps; N, C: chain ends. Residues, ends and D or L forms follow the SMILES beside them. *: point of attachment. X1 = O=C(COCC(=O)*)NCCOCCOCCOCCOCCOCCNC(=O)CSCCCF; CH2 = C([*:1])[*:2]

Target: T1, ανβ3 integrin receptor (Homo sapiens, UniProt P05106+P06756)
T1 construct: Using cell membrane preparations known to express the ανβ3 integrin receptor; endogenous in cells
Assay: competitive binding with 125I-echistatin on cell membrane preparations
Details: cell membrane preparations expressing ανβ3 integrin receptor; 125I-echistatin as radioligand; Ki calculated using Prism software
Experimental: Using cell membrane preparations known to express the ανβ3 integrin receptor, competitive binding studies were carried out using ^125I-echistatin and the F-labelled peptides as competing ligand. Binding curves were obtained and Ki's calculated using Prism™ software.

Ki: 7 nM
SMILES: N=C(N)NCCC[C@@H]1NC(=O)[C@@H]2CSCSC[C@H](NC(=O)[C@H](CC(=O)O)NC(=O)CNC1=O)C(=O)N[C@@H](Cc1ccccc1)C(=O)N[C@H](C(N)=O)CSCC(=O)N[C@@H](CCCCNC(=O)COCC(=O)NCCOCCOCCOCCOCCOCCNC(=O)CSCCCF)C(=O)N2 [Example 1] ({CH2CO}-K(X1)CRGDCFC-NH2; linker 2-6 via CH2; thioether N-8)
